# Assay results published in patent US6350477B1, “Food material containing antioxidant ingredient derived from citrus fruits” (Pokka Corporation, priority 1998, dated 2002).
# How the values were obtained:
# [1] = Mutagenicity test according to Ames assay; format: cell-based
# Description: (§1) Eriocitrin is an ingredient derived from natural products, and it is contained in a juice of citrus fruits such as lemon and lime which have been already eaten in a large amount of several tens of milligrams per 100 ml. There is no problem with a safety to humans. It is negative in the mutagenicity test according to Rec-assay or Ames assay. Thus, the safety has been identified.
# [2] = Mutagenicity test according to Rec-assay; format: cell-based
# Description: as §1
structure (smiles),measurement,setting,value
"C[C@@H]1O[C@@H](OC[C@H]2O[C@@H](Oc3cc(O)c4c(c3)O[C@H](c3ccc(O)c(O)c3)CC4=O)[C@H](O)[C@@H](O)[C@@H]2O)[C@H](O)[C@H](O)[C@H]1O [Eriocitrin, eriodictyol-7-rutinoside]",mutagenicity test according to Ames assay,[1],negative
same,mutagenicity test according to Rec-assay,[2],negative
